Assay [1] concerns p38. The experiment in a line: MAPK signaling after UV, Western blotting: p38. The format is cell-based, human. The following applies: HaCaT cells; 10, 25, 50 μM; 30 minutes after UV irradiation. How it is done:
(§1) Western blotting was performed in the same manner as in Example 2-1 in order to identify the factor that affects the COX-2 expression regulated by capsiate, except for treating the cells with capsiate at different concentrations (10 μM, 25 μM and 50 μM) prior to UV irradiation, and using rabbit anti-ERK antibody, rabbit anti-p-ERK antibody, rabbit anti-p38 antibody, rabbit anti-p-p38 antibody, rabbit anti-JNK antibody and rabbit anti-p-JNK antibody (cell signaling), and anti-rabbit IgG-HRP conjugation antibody (Zymed) as the secondary antibody, 30 minutes after UV irradiation.

In assay [2] the test system is JNK. The experiment in a line: MAPK signaling after UV, Western blotting: JNK. The format is cell-based, human. The conditions noted are these: HaCaT cells; 10, 25, 50 μM; 30 minutes after UV irradiation. How it is done:
as §1
(In general: A western blot detects proteins with antibodies after separation by electrophoresis.)

The subject of assay [3] is IL-6. As to the kind of experiment: UV-induced pro-inflammatory cytokine mRNA, RT-PCR: IL-6. The format is cell-based, human. The following applies: HaCaT cells; 10, 25, 50 μM; UV 100 J/m^2; 4 hours. How it is done:
(§2) 1×10^6 HaCaT cells were placed on a 100 mm Petri dish and cultured for 24 hours in DMEM containing 10% FBS. Subsequently, the cells were cultured for 24 hours in DMEM containing 1% FBS until starvation. Then, after treating with capsiate at different concentrations (10 μM, 25 μM, 50 μM) for 30 minutes, followed by washing 3 times with PBS, UV was irradiated at an intensity of 100 J/m^2 to induce the production of cytokines. Immediately after the UV irradiation, the cells were washed again with PBS and further cultured for 4 hours in DMEM containing 1% FBS, which was treated with capsiate at the same concentration as in the pre-treatment.
(§3) Then, the degree of mRNA expression for IL-6, IL-8 and TNF-α induced mainly in the skin by the UV irradiation was evaluated by RT-PCR in order to measure the inhibition effect against the pro-inflammatory cytokines.
(§4) RNAs were extracted from the cells of each test group using Trizol (Invitrogen, USA) and used as template for PCR (PTC-225 Peltier thermal cycler, MJ Research, USA) to prepare cDNAs for each test group. Using the resultant cDNAs as template, the degree of mRNA expression for IL-6, IL-8 and TNF-α was measured by RT-PCR (Roter Gene 6000 series, Corbett Research, Australia) using commercial IL-6, IL-8 and TNF-α primers. […]

In assay [4] the test system is IL-8. The experiment in a line: UV-induced pro-inflammatory cytokine mRNA, RT-PCR: IL-8. The format is cell-based, human. The following applies: HaCaT cells; 10, 25, 50 μM; UV 100 J/m^2; 4 hours. As to the method:
as §2, §3, §4

Assay [5] deals with TNF-α. The experiment in a line: UV-induced TNF-α mRNA in hairless mouse skin, RT-PCR. The format is in vivo. The conditions noted are these: 200 μL of 1 mM topically 1 hour before UV 5 kJ/m^2 once, 6 hours later. As to the method: In order to investigate the effect of capsiate on the production of IL-6 and TNF-α induced in skin tissue during inflammatory response, the inhibition ability of capsiate against the expression of the pro-inflammatory cytokines was evaluated in animal model as follows. Test groups were as follows: non-treated group—treated with acetone only without UV irradiation; test group A—treated with 200 μL of 1 mM capsiate dissolved in acetone without UV irradiation; UV group—treated with acetone and UV; test group B—treated with 200 μL of 1 mM capsiate dissolved in acetone followed by UV irradiation 1 hour later.
To this end, acetone and capsiate were treated prior to UV irradiation. After treating with UV once at an intensity of 5 kJ/m^2, hairless mouse was euthanized 6 hours later. mRNA was extracted from the mouse tissue obtained by skin biopsy and RT-PCR was carried out as follows. For RNA extraction from the tissue, each mouse tissue obtained by skin biopsy was quickly frozen in liquid nitrogen and ground finely using a mortar. RNA was extracted from the mouse tissue using Trizol (Invitrogen, USA), and PCR (PTC-225 Peltier thermal cycler, MJ Research, USA) was carried out using it as template and using a commercial kit (reverse transcription system, Qiagen, USA). As a result, cDNA was prepared from each group. […]

In assay [6] the test system is Ki67. As to the kind of experiment: Ki67 expression in mouse skin, immunohistochemical staining. The format is in vivo. The following applies: mouse skin tissue of Example 5. How it is done:
(§5) In order to investigate the effect of capsiate on various intracellular angiogenesis-related expression factors, the inhibition effect of capsiate on angiogenesis factors induced by UV was evaluated using the mouse tissue of Example 5.
Mouse skin tissue obtained by skin biopsy was immersed in OCT compound (Sakura Finetechnical Co. Ltd, Japan) and slowly frozen in liquid nitrogen. Thus prepared tissue was sliced with a thickness of 7 μm and fixed on a slide using acetone. The tissue was washed with distilled water and PBS and, after blocking for 1 hour using 10% normal goat serum, incubated at 4° C. for at least 16 hours using ki67 antibody (1:100, Neomarker, USA). After washing 3 times with PBS, the tissue was treated with Alexa 488-conjugated secondary antibody (Invitrogen, USA) for 30 minutes and then washed 3 times. The tissue was mounted and observed under a fluorescence microscope (Carl Zeiss, USA).

Assay [7] concerns PECAM-1 (CD31). The experiment in a line: PECAM-1 expression in mouse skin, immunohistochemical staining. The following applies: mouse skin tissue of Example 5; treated prior to UV irradiation. The format is in vivo. As to the method:
as §5
To investigate this effect, the paraffin-embedded tissue prepared as in Example 6 was processed in the same manner as Example 6, treated with PECAM-1 antibody (1:100, BD Pharmingen, USA) on a slide, treated with biotinylated secondary antibody (DAKO code K0675; DAKO Corp., USA) for 30 minutes, and washed 3 times. After treatment with streptavidin-peroxidase (DAKO code K0675, DAKO Corp., USA) for 30 minutes, followed by washing 3 times with PBS, the tissue was stained using DAB (DAKO Corp., USA) for confirmation of the level of PECAM-1 expression.

Assay [8] has as its system hairless mouse. As to the kind of experiment: Change of mouse skin tissue after UV, hematoxylin-eosin staining. The format is in vivo. The following applies: 4 times of UV irradiation every other day at 2.5 kJ/m^2. As to the method:
When the skin is exposed to UV, erythema, or […] of the skin, occurs accompanied by edema, prior to a variety of cellular changes including inflammation, apoptosis, carcinogenesis, or the like [Tadashi Terui, Hachiro Tagami, Mediators of inflammation involved in UVB erythema, Journal of Dermatological Science 23 Suppl. 1 (2000) S1S5]. In order to investigate the effect of capsiate on erythema accompanied by UV-induced inflammatory response, experiment was carried out as follows using hairless mouse. Test groups were as follows: non-treated group—treated with acetone only without UV irradiation; test group A—treated with 200 μL of 1 mM capsiate dissolved in acetone without UV irradiation; UV group—treated with acetone and UV; test group B—treated with UV and 200 μL of 1 mM capsiate dissolved in acetone every 24 hours.
After 4 times of UV irradiation every other day at an intensity of 2.5 kJ/m^2, hematoxylin-eosin staining was carried out in order to observe the change of mouse skin tissue.

The structures appear in SMILES notation.

For `COc1cc(COC(=O)CCCC/C=C/C(C)C)ccc1O` [capsiate], in assay [1], the “p38 (phosphorylation)” value is on record as “no particular change”. Moreover, the “JNK (phosphorylation)” value in assay [2] is “no particular change”. In addition, in assay [3], the “expression of IL-6 (mRNA) increased by UV irradiation” value was “significantly decreases”. The “expression of IL-8 (mRNA) increased by UV irradiation” value in assay [4] is on record as “significantly decreases”. Also, in assay [5], the “UV-induced expression of TNF-α (mRNA) in skin tissue” value is listed as “decrease”. For the same compound, in assay [6], the “expression of Ki67 increased by UV” value is given as “significantly inhibited”. Also, the “level of PECAM-1 expression” value in assay [7] was “significantly lower”. The “thickness of the epidermis (hematoxylin-eosin staining)” value in assay [8] is listed as “less thick”.

Source of the values: US9572786B2, “Use of capsiate or dihydrocapsidate” (Catholic University Industry Academy Cooperation Foundation, priority 2007, dated 2017).
